Laboratory results from US6358885B1, “Substituted phenylheterocyclic herbicides” (Mississippi State University, priority 1992, dated 2002).

Tests used:
Assay in all cases: Test B preemergence/postemergence greenhouse plant response rating 0 to 10
barnyardgrass = format: in vivo, Echinochloa crus-galli; settings: for Plant response rating, Barnyardgrass: 0 to 10 scale
In short: (§1)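 Both application timings were run together: seeds got compound preemergence, and established seedlings (two to eighteen cm) got it postemergence. Non-phytotoxic solvent carried the chemical. Ratings are visual, versus controls, at twelve to sixteen days.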

giant foxtail = format: in vivo, Setaria faberii; settings: for Plant response rating, Giant foxtail: 0 to 10 scale; for Plant response rating (0 to 10 scale), Giant foxtail: Rate 100 g/ha
In short: as §1

lambsquarters = format: in vivo, Chenopodium album; settings: for Plant response rating, Lambsquarter: 0 to 10 scale; for Plant response rating (0 to 10 scale), Lambsquarter: Rate 100 g/ha
In short: as §1

sugar beet = format: in vivo, Beta vulgaris; settings: for Plant response rating, Sugar beet: 0 to 10 scale; for Plant response rating (0 to 10 scale), Sugar beet: Rate 100 g/ha
In short: as §1

velvetleaf = format: in vivo, Abutilon theophrasti; settings: for Plant response rating, Velvetleaf: 0 to 10 scale
In short: as §1

SMILES	Plant response rating (0 to 10 scale), Barnyardgrass (barnyardgrass; POSTEMERGENCE, Rate 50 g/ha)	Plant response rating, Barnyardgrass (barnyardgrass; POSTEMERGENCE, Rate 200 g/ha)	Plant response rating, Barnyardgrass (barnyardgrass; PREEMERGENCE, Rate 50 g/ha)	Plant response rating, Barnyardgrass (barnyardgrass; Rate 200 g/ha, PREEMERGENCE)	Plant response rating, Giant foxtail (giant foxtail; POSTEMERGENCE, Rate 50 g/ha)	Plant response rating, Giant foxtail (giant foxtail; POSTEMERGENCE, Rate 200 g/ha)	Plant response rating, Giant foxtail (giant foxtail; PREEMERGENCE, Rate 50 g/ha)	Plant response rating, Giant foxtail (giant foxtail; Rate 200 g/ha, PREEMERGENCE)	Plant response rating, Lambsquarter (lambsquarters; POSTEMERGENCE, Rate 50 g/ha)	Plant response rating, Lambsquarter (lambsquarters; POSTEMERGENCE, Rate 200 g/ha)	Plant response rating, Lambsquarter (lambsquarters; PREEMERGENCE, Rate 50 g/ha)	Plant response rating, Lambsquarter (lambsquarters; Rate 200 g/ha, PREEMERGENCE)	Plant response rating, Sugar beet (sugar beet; POSTEMERGENCE, Rate 50 g/ha)	Plant response rating, Sugar beet (sugar beet; POSTEMERGENCE, Rate 200 g/ha)	Plant response rating, Sugar beet (sugar beet; PREEMERGENCE, Rate 50 g/ha)	Plant response rating, Sugar beet (sugar beet; Rate 200 g/ha, PREEMERGENCE)	Plant response rating, Velvetleaf (velvetleaf; POSTEMERGENCE, Rate 50 g/ha)	Plant response rating, Velvetleaf (velvetleaf; POSTEMERGENCE, Rate 200 g/ha)	Plant response rating, Velvetleaf (velvetleaf; PREEMERGENCE, Rate 50 g/ha)	Plant response rating, Velvetleaf (velvetleaf; Rate 200 g/ha, PREEMERGENCE)	further results
Clc1ccc(-c2nc3n(c2Cl)CCC=C3)c(Cl)c1 [Compound 1]	2	3	0	0	3	3	0	0	4	7	0	0	8	10	0	0	3	8	0	0	
Clc1ccc(-c2nc3n(c2Br)CCCC3)c(Cl)c1 [Compound 2]	3	3	0	0	4	5	0	0	9	9	0	6	9	10	0	0	9	8	0	0	Plant response rating (0 to 10 scale), Barnyardgrass (barnyardgrass; POSTEMERGENCE, Rate 100 g/ha): 3; Plant response rating, Barnyardgrass (barnyardgrass; POSTEMERGENCE, Rate 400 g/ha): 5; Plant response rating (0 to 10 scale), Barnyardgrass (barnyardgrass; PREEMERGENCE, Rate 100 g/ha): 0; Plant response rating, Barnyardgrass (barnyardgrass; PREEMERGENCE, Rate 400 g/ha): 2; Plant response rating (0 to 10 scale), Giant foxtail (giant foxtail; POSTEMERGENCE): 4; Plant response rating, Giant foxtail (giant foxtail; POSTEMERGENCE, Rate 400 g/ha): 6; Plant response rating (0 to 10 scale), Giant foxtail (giant foxtail; PREEMERGENCE): 0; Plant response rating, Giant foxtail (giant foxtail; PREEMERGENCE, Rate 400 g/ha): 7; Plant response rating (0 to 10 scale), Lambsquarter (lambsquarters; POSTEMERGENCE): 9; Plant response rating, Lambsquarter (lambsquarters; POSTEMERGENCE, Rate 400 g/ha): 9; Plant response rating (0 to 10 scale), Lambsquarter (lambsquarters; PREEMERGENCE): 0; Plant response rating (0 to 10 scale), Sugar beet (sugar beet; POSTEMERGENCE): 9; Plant response rating, Sugar beet (sugar beet; POSTEMERGENCE, Rate 400 g/ha): 10; Plant response rating (0 to 10 scale), Sugar beet (sugar beet; PREEMERGENCE): 0; Plant response rating (0 to 10 scale), Velvetleaf (velvetleaf; POSTEMERGENCE, Rate 100 g/ha): 8; Plant response rating, Velvetleaf (velvetleaf; POSTEMERGENCE, Rate 400 g/ha): 9; Plant response rating, Velvetleaf (velvetleaf; PREEMERGENCE, Rate 400 g/ha): 4
